From ChEMBL document CHEMBL1772944, “Homoflavonoid glucosides from Ophioglossum pedunculosum and their anti-HBV activity” (J Nat Prod, 2011) come the findings set out here.

Tested on in one series: not listed separately
Put plainly: Cytotoxicity against human HepG2(2.2.15) cells after 8 days by MTT assay. Format: cell-based.
For the molecule `O=c1c(CO)c(-c2ccc(O[C@@H]3O[C@H](CO)[C@@H](O)[C@H](O)[C@H]3O)c(O)c2)oc2cc(O[C@@H]3O[C@H](CO)[C@@H](O)[C@H](O)[C@H]3O)cc(O)c12` [PEDUNCULOSUMOSIDE F], the CC50 at 192 h amounted to 56.7 µM.
On the same count and under the same terms, the value for `COc1c(-c2ccc(O)c(O)c2)oc2cc(O)cc(O)c2c1=O` [3-O-METHYLQUERCETIN] was 2.1 µM.
Same read-out and setting: the value for `O=c1c(O)c(-c2ccc(O)c(O)c2)oc2cc(O)cc(O)c12` [QUERCETIN] was 38.1 µM; that for `Nc1ccn([C@@H]2CS[C@H](CO)O2)c(=O)n1` [LAMIVUDINE] was 2400 µM.
Same read-out and setting: the value for `O=c1c(CO)c(-c2ccc(O[C@@H]3O[C@H](CO)[C@@H](O)[C@H](O)[C@H]3O)c(O)c2)oc2cc(O)cc(O)c12` was 19.7 µM.
`O=c1c2c(oc3cc(O)cc(O)c13)-c1ccc(O)c(O)c1CO2` [OPHIOGLONIN] came in with a CC50 at 192 h of 20.4 µM.
Regarding `COc1c(-c2ccc(O)c(O)c2)oc2cc(O[C@@H]3O[C@H](CO)[C@@H](O)[C@H](O)[C@H]3O)cc(O)c2c1=O` [TRANSILIN], the CC50 at 192 h came to 5.4 µM.
Same read-out and setting: the value for `COc1c(-c2ccc(O[C@@H]3O[C@H](CO)[C@@H](O)[C@H](O)[C@H]3O)c(O)c2)oc2cc(O[C@@H]3O[C@H](CO)[C@@H](O)[C@H](O)[C@H]3O)cc(O)c2c1=O` was 7.9 µM.
Still for that read-out and setting: the value for `O=c1c(CO)c(-c2ccc(O[C@@H]3O[C@H](CO)[C@@H](O)[C@H](O)[C@H]3O)c(O)c2)oc2cc(O[C@@H]3O[C@H](CO)[C@@H](O)[C@H](O)[C@H]3O[C@@H]3O[C@H](CO)[C@@H](O)[C@H](O)[C@H]3O)cc(O)c12` [PEDUNCULOSUMOSIDE E] was more than 100 µM.

The next series relates to Hepatitis B virus. The series is described as follows: Antiviral activity against HBV transfected in human HepG2(2.2.15) cells assessed as inhibition of HBsAg secretion by ELISA. It counts as functional, organism-based.
For `Nc1ccn([C@@H]2CS[C@H](CO)O2)c(=O)n1` [LAMIVUDINE], the IC50 was found to be 58 µM.
